Article PMC4457528, “Identification of Novel Small Molecule Inhibitors of Oncogenic RET Kinase” (PLoS ONE, 2015)

Experiments:
[1] = system: SHC and MAPK phosphorylation in parental RAT1 cells; assay: Western blot of SHC and MAPK phosphorylation in parental RAT1 cells; format: cell-based, rat; conditions: 2 hr
Description: (§1) Protein lysates were prepared according to standard procedures. Briefly, cells were lysed in a buffer containing 50 mM N-2-hydroxyethylpiperazine-N'-2-ethanesulfonic acid (HEPES; pH 7.5), 1% (vol/vol) Triton X-100, 150 mM NaCl, 5 mM EGTA, 50 mM NaF, 20 mM sodium pyrophosphate, 1 mM sodium vanadate, 2 mM phenylmethylsulphonyl fluoride (PMSF) and 1 μg/ml aprotinin. Lysates were clarified by centrifugation at 10,000 Xg for 15 min. […] Immune complexes were detected with the enhanced chemiluminescence kit (Amersham Pharmacia Biotech, Little Chalfort, UK). Signal intensity was analyzed at the Phosphorimager (Typhoon 8600, Amersham Pharmacia Biotech) interfaced with the ImageQuant software. Anti-phospho-SHC (#07206), that recognizes SHC proteins when phosphorylated on Y317 was from Merck Millipore (Darmstadt, Germany). Anti-MAPK (#4695) and anti-phospho-MAPK (#4370), specific for p44/42MAPK (ERK1/2) phosphorylated on Thr202/Tyr204, anti-VEGFRII (#2479) and anti-phospho-VEGFRII (#2478), that recognizes VEGF Receptor 2 when phosphorylated on Y1175, were from Cell Signaling (Beverly, MA).
(§2) Anti-SHC (#H-108) was from Santa Cruz Biotechnology (Santa Cruz, CA). Anti-RET is a polyclonal antibody raised against the tyrosine kinase protein fragment of human RET [28]. Anti-phospho905 is a phospho-specific polyclonal antibody recognizing RET proteins phosphorylated at Y905 and anti-phospho1062 is a phospho-specific polyclonal antibody recognizing RET proteins phosphorylated at Y1062 [13]. Secondary antibodies coupled to horseradish peroxidase were from Santa Cruz Biotechnology.
EC: extracellular domain; IC: intracellular domain; TM: transmembrane domain.

wt RET = biological target: T1, wt RET (Homo sapiens, UniProt P07949); assay: Invitrogen SelectScreen in vitro kinase assay, wt RET; format: biochemical; conditions: read-out: in vitro IC50 dose: RET
T1 construct: purchased Invitrogen (SelectScreen service)
T1 sequence (P07949 29-1114): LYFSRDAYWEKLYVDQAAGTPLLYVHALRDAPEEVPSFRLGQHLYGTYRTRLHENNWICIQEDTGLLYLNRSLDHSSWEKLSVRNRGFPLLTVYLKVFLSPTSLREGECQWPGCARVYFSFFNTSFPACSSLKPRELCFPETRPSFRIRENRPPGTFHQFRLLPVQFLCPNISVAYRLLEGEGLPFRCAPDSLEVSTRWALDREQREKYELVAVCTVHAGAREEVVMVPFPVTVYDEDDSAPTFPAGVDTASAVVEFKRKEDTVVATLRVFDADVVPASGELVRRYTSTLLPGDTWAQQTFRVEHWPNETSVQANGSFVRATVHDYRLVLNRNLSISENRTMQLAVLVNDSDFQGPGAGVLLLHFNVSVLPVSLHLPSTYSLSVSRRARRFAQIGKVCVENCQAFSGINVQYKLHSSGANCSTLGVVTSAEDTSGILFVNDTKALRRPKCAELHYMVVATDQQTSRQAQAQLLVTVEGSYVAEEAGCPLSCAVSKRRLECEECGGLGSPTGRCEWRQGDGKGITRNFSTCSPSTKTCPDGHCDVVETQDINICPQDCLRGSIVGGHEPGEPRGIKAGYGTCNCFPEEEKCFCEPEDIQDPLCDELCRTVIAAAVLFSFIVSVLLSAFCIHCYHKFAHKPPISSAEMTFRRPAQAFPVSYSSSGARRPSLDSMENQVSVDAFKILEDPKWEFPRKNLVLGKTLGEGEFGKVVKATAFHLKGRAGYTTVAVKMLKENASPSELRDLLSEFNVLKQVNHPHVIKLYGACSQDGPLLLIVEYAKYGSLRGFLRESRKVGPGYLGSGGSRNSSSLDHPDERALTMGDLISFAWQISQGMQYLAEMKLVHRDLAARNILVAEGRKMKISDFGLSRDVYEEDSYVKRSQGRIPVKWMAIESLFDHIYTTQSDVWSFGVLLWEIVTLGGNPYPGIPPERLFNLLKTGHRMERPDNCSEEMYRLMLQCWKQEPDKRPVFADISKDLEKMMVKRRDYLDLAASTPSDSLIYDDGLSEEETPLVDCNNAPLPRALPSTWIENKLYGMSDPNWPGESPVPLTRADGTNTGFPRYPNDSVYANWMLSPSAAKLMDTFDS
From the text: Fig 2 ALW-II-41-27, HG-6-63-01 and XMD15-44 chemical structure. A) Chemical structure of the studied compounds: red colour indicates the “tail”, black colour indicates “linker”, and pink colour indicates the “head” part in the binding. B) Modelling of ALW-II-41-27 (left), XMD15-44 (middle) and HG-6-63-01(right) binding to the DFG-out conformation of RET.
Though more rarely than C634 and M918 mutations, other mutations targeting RET residues in the tyrosine kinase domain can cause familial or sporadic MTC [1, 2]. […] Of note, RET A883 residue is located in the VI Hanks domain adjacent to RET activation loop and it corresponds to G372 residue in ABL kinase whose mutation has been isolated in imatinib-resistant patients.

RAT1 cells = assay: Growth curves, parental RAT1 cells; format: cell-based, rat; conditions: low serum
Description: (§3) To compare cell growth, we performed unpaired Student’s t test using the Instat software program (Graphpad Software Inc). P values were two-sided, and differences were considered statistically significant at P <.02. IC50 doses were calculated through a curve fitting analysis from last day values using the PRISM software program (Graphpad Software Inc).

VEGFRII = biological target: T2, VEGFRII (Homo sapiens, UniProt P35968); assay: Western blot of VEGFRII phosphorylation in TT cells; format: cell-based; conditions: 2 hr, Western blotting
T2 construct: endogenous in cells; host or cells: TT human medullary thyroid carcinoma cells
T2 sequence (P35968 20-1356): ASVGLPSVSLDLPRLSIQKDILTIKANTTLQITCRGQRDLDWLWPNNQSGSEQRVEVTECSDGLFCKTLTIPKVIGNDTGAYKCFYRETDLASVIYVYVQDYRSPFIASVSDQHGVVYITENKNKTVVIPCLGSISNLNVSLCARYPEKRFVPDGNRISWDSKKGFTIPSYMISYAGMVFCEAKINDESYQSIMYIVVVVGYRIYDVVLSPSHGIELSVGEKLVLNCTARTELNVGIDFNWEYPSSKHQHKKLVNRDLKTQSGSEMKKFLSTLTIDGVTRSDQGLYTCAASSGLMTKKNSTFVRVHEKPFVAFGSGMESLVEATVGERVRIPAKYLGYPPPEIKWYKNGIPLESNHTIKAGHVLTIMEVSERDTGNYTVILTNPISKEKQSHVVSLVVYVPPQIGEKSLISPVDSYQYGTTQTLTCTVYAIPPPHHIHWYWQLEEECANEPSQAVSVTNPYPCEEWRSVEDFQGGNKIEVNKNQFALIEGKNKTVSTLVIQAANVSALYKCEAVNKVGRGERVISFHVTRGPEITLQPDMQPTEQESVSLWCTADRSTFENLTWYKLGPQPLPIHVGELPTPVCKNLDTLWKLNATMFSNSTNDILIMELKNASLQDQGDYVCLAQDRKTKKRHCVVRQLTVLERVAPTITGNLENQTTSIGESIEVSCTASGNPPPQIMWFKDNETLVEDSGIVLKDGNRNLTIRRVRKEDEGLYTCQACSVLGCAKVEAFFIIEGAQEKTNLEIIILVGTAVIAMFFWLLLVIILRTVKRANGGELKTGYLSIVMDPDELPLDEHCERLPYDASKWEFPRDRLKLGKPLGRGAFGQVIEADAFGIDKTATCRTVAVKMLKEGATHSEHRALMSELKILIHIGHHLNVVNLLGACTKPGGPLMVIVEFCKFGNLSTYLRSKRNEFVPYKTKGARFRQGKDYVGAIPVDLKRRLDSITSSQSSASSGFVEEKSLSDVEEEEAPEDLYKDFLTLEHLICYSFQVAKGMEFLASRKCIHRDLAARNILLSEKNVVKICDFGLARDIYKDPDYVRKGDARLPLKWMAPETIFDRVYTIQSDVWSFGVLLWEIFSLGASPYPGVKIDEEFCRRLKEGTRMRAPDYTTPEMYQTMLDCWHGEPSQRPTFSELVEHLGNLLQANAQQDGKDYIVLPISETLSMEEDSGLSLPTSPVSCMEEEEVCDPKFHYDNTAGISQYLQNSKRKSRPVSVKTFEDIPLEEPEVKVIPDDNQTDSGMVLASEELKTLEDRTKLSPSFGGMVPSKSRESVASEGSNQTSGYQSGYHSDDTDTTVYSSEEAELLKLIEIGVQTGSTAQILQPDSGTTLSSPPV
Description: as §1
VEGFRII inhibition is believed to contribute, based on its anti-angiogenic effect, to clinical activity of approved RET inhibitors such as vandetanib and cabozantinib.
The blots were normalized using anti-VEGFRII (αVEGFRII) antibody. (JPG) Click here for additional data file.

TT cells = assay: Growth curves, TT medullary thyroid carcinoma cells (RET/C634W); format: cell-based; conditions: Homo sapiens, 20% serum, 95% CI in brackets, read-out: Growth inhibition IC50 dose TT
Description: (§4) TT human cell line was obtained in 2002 from ATCC and authenticated by RET genotyping; it was derived from a MTC and harbors a cysteine 634 to tryptophan (C634W) RET mutation. TT cells were grown in RPMI 1640 supplemented with 20% fetal calf serum (GIBCO). MZ-CRC-1 human cells were kindly provided in 2009 by Robert F. Gagel (MD Anderson, Houston, TX) and authenticated by RET genotyping. […] Nthy-ori 3–1, a human thyroid follicular epithelial cell line immortalized by the SV40 large T gene, was obtained from European Collection of Cell Cultures (ECACC) (Wiltshire, UK) in 2010.
as §3

MZ-CRC-1 cells = assay: Growth curves, MZ-CRC-1 medullary thyroid carcinoma cells (RET/M918T); format: cell-based; conditions: Homo sapiens, 10% serum, 95% CI in brackets, read-out: Growth inhibition IC50 dose MZ-CRC-1
Description: as §4, §3

RAT RET/C634R cells = format: cell-based; conditions: low serum, last day values, 95% CI in brackets, read-out: Growth inhibition IC50 dose: RAT RET/C634R
Description: as §3

[2] = system: SHC and MAPK phosphorylation in Nthy-ori-3-1 cells; assay: Western blot of SHC and MAPK phosphorylation in Nthy-ori-3-1 cells; format: cell-based, human; conditions: 10, 100 and 1,000 nM, 2 hr
Description: as §1, §2
We selected TT and MZ-CRC-1 cells, that derive from human MTC harbouring the RET/C634W or RET/M918T mutation, respectively, and TPC1 cells, that derive from human PTC bearing the RET/PTC1 (CCDC6-RET) rearrangement. […] Concentrations as low at 10 nM of all three drugs inhibited RET autophosphorylation as well as SHC and MAPK activation by 20–40% of control (Fig 4A–4C). […]

KinomeScan kinase panel = biological target: T3, KinomeScan kinase panel (Homo sapiens, UniProt Q9Y2H1); assay: KinomeScan kinase panel, single concentration 10 µM; format: binding; conditions: NDR2, 10 µM; read-out: score (%)
T3 construct: purchased DiscoveRx (KinomeScan)
T3 sequence (Q9Y2H1 whole entry): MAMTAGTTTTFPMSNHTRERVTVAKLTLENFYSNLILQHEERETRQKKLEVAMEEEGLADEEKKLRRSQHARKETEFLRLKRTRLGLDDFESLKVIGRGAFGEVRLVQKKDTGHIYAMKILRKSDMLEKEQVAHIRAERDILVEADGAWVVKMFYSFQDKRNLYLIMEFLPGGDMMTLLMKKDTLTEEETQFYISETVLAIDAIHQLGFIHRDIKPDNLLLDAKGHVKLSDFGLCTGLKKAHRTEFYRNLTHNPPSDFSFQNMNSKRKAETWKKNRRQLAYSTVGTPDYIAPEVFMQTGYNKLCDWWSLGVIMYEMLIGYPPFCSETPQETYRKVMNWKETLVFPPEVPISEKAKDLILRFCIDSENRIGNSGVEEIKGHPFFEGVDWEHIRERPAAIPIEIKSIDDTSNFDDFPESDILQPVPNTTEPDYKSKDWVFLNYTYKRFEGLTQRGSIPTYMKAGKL

For CCN1CCN(Cc2ccc(NC(=O)c3ccc(C)c(C#Cc4cccnc4)c3)cc2C(F)(F)F)CC1 [XMD15-44], the “effect on SHC and MAPK phosphorylation in parental RAT1 cells” value (shortened to “effect … in parental RAT1 cells”) [1] was “did not affect”, the IC50 (wt RET) was 14.2 nM and the “Growth inhibition IC50 dose: RAT1” value (RAT1 cells) was “Not measurable”. The “inhibition of VEGFRII phosphorylation in living TT cells” value (“inhibition of VEGFRII phosphorylation” for short) (VEGFRII) was “able to inhibit”, the IC50 (TT cells) was 1.5 nM and the IC50 (MZ-CRC-1 cells) was 4.2 nM. For the same molecule, the IC50 (RAT RET/C634R cells) was 11.5 nM, the “effect on SHC and MAPK phosphorylation in Nthy-ori-3-1 cells” value (“effect … in Nthy-ori-3-1 cells” below) [2] was “did not exert any detectable effects” and the remaining binding at 10 µM (KinomeScan kinase panel) was 8.7%.

In the case of CCN1CCN(Cc2ccc(NC(=O)c3ccc(C)c(/C=C/c4cnc5[nH]ccc5c4Cl)c3)cc2C(F)(F)F)CC1 [HG-6-63-01, (E)-3-(2-(4-chloro-1H-pyrrolo[2,3-b]pyridin-5-yl)vinyl)-N-(4-((4-ethylpiperazin-1-yl)methyl)-3-(trifluoromethyl)phenyl)-4-methylbenzamide], the “effect … in parental RAT1 cells” value [1] is reported as “did not affect”, the IC50 (wt RET) is reported as 35.3 nM and the “Growth inhibition IC50 dose: RAT1” value (RAT1 cells) is reported as “Not measurable”. The “inhibition of VEGFRII phosphorylation” value (VEGFRII) was “able to inhibit”, the IC50 (TT cells) was 2.3 nM and the IC50 (MZ-CRC-1 cells) was 1 nM. For the same molecule, the IC50 (RAT RET/C634R cells) was 21 nM, the “effect … in Nthy-ori-3-1 cells” value [2] was “did not exert any detectable effects” and the remaining binding at 10 µM (KinomeScan kinase panel) was over 30%.

In the case of CCN1CCN(Cc2ccc(NC(=O)c3ccc(C)c(NC(=O)c4cncc(-c5cccs5)c4)c3)cc2C(F)(F)F)CC1 [ALW-II-41-27], the “effect … in parental RAT1 cells” value [1] is reported as “did not affect”, the IC50 (wt RET) is reported as 24.7 nM and the “Growth inhibition IC50 dose: RAT1” value (RAT1 cells) is reported as “Not measurable”. For the same molecule, the “inhibition of VEGFRII phosphorylation” value (VEGFRII) was “able to inhibit”, the IC50 (TT cells) was 5.7 nM and the IC50 (MZ-CRC-1 cells) was 2 nM. For the same molecule, the IC50 (RAT RET/C634R cells) was 44 nM, the “effect … in Nthy-ori-3-1 cells” value [2] was “did not exert any detectable effects” and the remaining binding at 10 µM (KinomeScan kinase panel) was 11%.
